How the values were obtained:
[1] = test system: rice; assay: Test Example 1: foliage treatment, upland pot test; type: in vivo, Oryza sativa L.; conditions: crop, active ingredient 500 g/ha, observed 18th to 23rd day, 0 = non-treated, 100 = complete kill
Summary of the method: (§1)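 Visual growth-control scores (0 = untreated, 100 = complete kill) were taken 18–23 days after foliar spraying of a wettable powder or emulsifiable concentrate, diluted in 500 L/ha water with 0.1% (v/v) spreader. Treatment leaf stages: barnyardgrass 1.3–2.8, rice 1.2–2.6, wheat 1.3–2.4, soybean 0.1–0.4.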

[2] = test system: soybean; assay: Test Example 2: soil surface treatment, upland pot test; type: in vivo, Glycine max Merr.; conditions: active ingredient 500 g/ha, observed 20th to 28th day
Summary of the method: (§2)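 Visual growth-control ratings, from 0 (like the non-treated plot) to 100 (total kill), were made between days 20 and 28 after a soil-surface spray. The compound, formulated as wettable powder or emulsifiable concentrate and diluted at 1,500 L/ha, went on one day post-sowing in upland-soil pots of 1/170,000 ha.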

[3] = test system: crabgrass; assay: Test Example 1: foliage treatment, upland pot test; type: in vivo, Digitaria sanguinalis L.; conditions: active ingredient 500 g/ha, observed 18th to 23rd day, 0 = non-treated, 100 = complete kill
[4] = test system: barnyardgrass; assay: Test Example 2: soil surface treatment, upland pot test; type: in vivo, Echinochloa crus-galli L.; conditions: active ingredient 500 g/ha, observed 20th to 28th day
Summary of the method: as §2

[5] = test system: wheat; assay: Test Example 1: foliage treatment, upland pot test; type: in vivo, Triticum spp.; conditions: crop, active ingredient 500 g/ha, observed 18th to 23rd day, 0 = non-treated, 100 = complete kill
Source text: Upland field soil was put into a 1/170,000 ha pot, and seed of various plants were sown. Then, when the plants reached predetermined leaf stages ((1) barnyardgrass: 1.3 to 2.8 leaf stages, (2) crabgrass: 1.0 to 2.8 leaf stages, (3) green foxtail: 1.3 to 2.6 leaf stages, (4) redroot pigweed: 0.1 to 1.2 leaf stages, (5) prickly sida: 0.1 to 1.2 leaf stages, (6) velvetleaf: 0.1 to 1.2 leaf stages, (7) tall morningglory: 0.1 to 1.5 leaf stages, (8) rice: 1.2 to 2.6 leaf stages, (9) wheat: 1.3 to 2.4 leaf stages, (10) corn, 2.1 to 3.2 leaf stages, (11) soybean: 0.1 to 0.4 leaf stage), a wettable powder or emulsifiable concentrate having the compound of the present invention formulated in accordance with a usual formulation method, was weighed so that the active ingredient would be a predetermined amount, and diluted with water in an amount of 500 L/ha. To the diluted solution, 0.1% (v/v) of agricultural spreader was added. The herbicide thus adjusted was applied by a small size sprayer for foliage treatment. On the 18th to 23rd days after the application of the herbicide, the growth of the respective plants was visually observed, and the herbicidal effects were evaluated by the growth controlling degrees (%) ranging from 0 (equivalent to the non-treated plot) to 100 (complete kill), whereby the results shown in Table 3, were obtained.

[6] = test system: prickly sida; assay: Test Example 1: foliage treatment, upland pot test; type: in vivo, Sida spinosa L.; conditions: active ingredient 500 g/ha, observed 18th to 23rd day, 0 = non-treated, 100 = complete kill
[7] = test system: velvetleaf; assay: Test Example 1: foliage treatment, upland pot test; type: in vivo, Abutilon theophrasti MEDIC.; conditions: active ingredient 500 g/ha, observed 18th to 23rd day, 0 = non-treated, 100 = complete kill
[8] = test system: corn; assay: Test Example 1: foliage treatment, upland pot test; type: in vivo, Zea mays L.; conditions: crop, active ingredient 500 g/ha, observed 18th to 23rd day, 0 = non-treated, 100 = complete kill
Summary of the method: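 In this upland pot foliage test, corn plants at 2.1 to 3.2 leaf stages were sprayed by a small size sprayer. The spray was a conventionally formulated wettable powder or emulsifiable concentrate weighed to a set active ingredient amount, diluted in water at 500 L/ha, plus 0.1% (v/v) agricultural spreader. Visual assessment on days 18 to 23 gave growth controlling degree (%), where 0 equals untreated and 100 means complete kill.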

[9] = test system: velvetleaf; assay: Test Example 2: soil surface treatment, upland pot test; type: in vivo, Abutilon theophrasti MEDIC.; conditions: active ingredient 500 g/ha, observed 20th to 28th day
Summary of the method: as §2

[10] = test system: green foxtail; assay: Test Example 1: foliage treatment, upland pot test; type: in vivo, Setaria viridis L.; conditions: active ingredient 500 g/ha, observed 18th to 23rd day, 0 = non-treated, 100 = complete kill
[11] = test system: barnyardgrass; assay: Test Example 3: paddy pot test, application under submerged conditions; type: in vivo, Echinochloa crus-galli L.; conditions: active ingredient 500 g/ha; submerged application at 0.5 leaf stage; visually observed 14 days after application; 0 = non-treated, 100 = complete kill
Summary of the method: (§3)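 Visual rating of growth control (0% equals untreated, 100% complete kill) made 14 days after treatment. Compound, formulated as wettable powder or emulsifiable concentrate and diluted in water, was pipetted under submerged conditions at predetermined active-ingredient doses once weeds reached 0.5-leaf (barnyardgrass, bulrush) or primary-leaf (wapato, from tubers) stage. Pots of greenhouse paddy soil held 3–4 cm flooding.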

[12] = test system: crabgrass; assay: Test Example 2: soil surface treatment, upland pot test; type: in vivo, Digitaria sanguinalis L.; conditions: active ingredient 500 g/ha, observed 20th to 28th day
Summary of the method: as §2

[13] = test system: soybean; assay: Test Example 1: foliage treatment, upland pot test; type: in vivo, Glycine max Merr.; conditions: crop, active ingredient 500 g/ha, observed 18th to 23rd day, 0 = non-treated, 100 = complete kill
Summary of the method: as §1

[14] = test system: rice (var. Nihonbare); assay: Test Example 3: paddy pot test, transplanted rice; type: in vivo, Oryza sativa L.; conditions: active ingredient 500 g/ha, applied 4th day after transplantation, visually observed 21st day after application, 0 = non-treated, 100 = complete kill
Summary of the method: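 Visual crop-injury rating (0 = as untreated, 100 = complete kill, %) taken 21 days post-application. Treatment: formulated compound, water-diluted, pipetted into 3–4 cm flood water at a preset active-ingredient dose, 4 days after transplanting 2-leaf Nihonbare rice 3 cm deep in puddled paddy soil.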

[15] = test system: green foxtail; assay: Test Example 2: soil surface treatment, upland pot test; type: in vivo, Setaria viridis L.; conditions: active ingredient 500 g/ha, observed 20th to 28th day
Summary of the method: as §2

[16] = test system: corn; assay: as above; type: in vivo, Zea mays L.; conditions: active ingredient 500 g/ha, observed 20th to 28th day
Summary of the method: as §2

[17] = test system: japanese bulrush; assay: Test Example 3: paddy pot test, application under submerged conditions; type: in vivo, Scirpus juncoides; conditions: active ingredient 500 g/ha; submerged application at 0.5 leaf stage; visually observed 14 days after application; 0 = non-treated, 100 = complete kill
Summary of the method: as §3

[18] = test system: barnyardgrass; assay: Test Example 1: foliage treatment, upland pot test; type: in vivo, Echinochloa crus-galli L.; conditions: active ingredient 500 g/ha, observed 18th to 23rd day, 0 = non-treated, 100 = complete kill
Summary of the method: as §1

[19] = test system: rice; assay: Test Example 2: soil surface treatment, upland pot test; type: in vivo, Oryza sativa L.; conditions: active ingredient 500 g/ha, observed 20th to 28th day
Summary of the method: as §2

[20] = test system: redroot pigweed; assay: as above; type: in vivo, Amaranthus retroflexus L.; conditions: active ingredient 500 g/ha, observed 20th to 28th day
Summary of the method: as §2

[21] = test system: redroot pigweed; assay: Test Example 1: foliage treatment, upland pot test; type: in vivo, Amaranthus retroflexus L.; conditions: active ingredient 500 g/ha, observed 18th to 23rd day, 0 = non-treated, 100 = complete kill
[22] = test system: prickly sida; assay: Test Example 2: soil surface treatment, upland pot test; type: in vivo, Sida spinosa L.; conditions: active ingredient 500 g/ha, observed 20th to 28th day
Summary of the method: as §2

[23] = test system: japanese ribbon wapato; assay: Test Example 3: paddy pot test, application under submerged conditions; type: in vivo, Sagittaria pygniaea; conditions: active ingredient 500 g/ha; submerged application at primary leaf stage; visually observed 14 days after application; 0 = non-treated, 100 = complete kill
Summary of the method: as §3

| SMILES | Growth controlling degree (%) Rice [1] [%] | Growth controlling degree (%) Soyabean [2] [%] | Growth controlling degree (%) Crabgrass [3] [%] | Growth controlling degree (%) Barnyardgrass [4] [%] | Growth controlling degree (%) wheat [5] [%] | Growth controlling degree (%) Prickly sida [6] [%] | Growth controlling degree (%) Velvetleaf [7] [%] | Growth controlling degree (%) Corn [8] [%] | Growth controlling degree (%) Velvetleaf [9] [%] | Growth controlling degree (%) Green foxtail [10] [%] | Growth controlling degree (%) Barnyardgrass [11] [%] | Growth controlling degree (%) Crabgrass [12] [%] | Growth controlling degree (%) Soybean [13] [%] | Growth controlling degree (%) Rice [14] [%] | Growth controlling degree (%) Green foxtail [15] [%] | Growth controlling degree (%) Corn [16] [%] | Growth controlling degree (%) Japanese bulrush [17] [%] | Growth controlling degree (%) Barnyardgrass [18] [%] | Growth controlling degree (%) Rice [19] [%] | Growth controlling degree (%) Redroot pigweed [20] [%] | further results |
| --- | --- | --- | --- | --- | --- | --- | --- | --- | --- | --- | --- | --- | --- | --- | --- | --- | --- | --- | --- | --- | --- |
| CON=Cc1ccc(CC(=O)N(C)C(c2cnccc2C(F)(F)F)C(C)C)cc1 (racemic) [I-122] | 10 | 10 | 95 | 98 | 0 | 80 | 70 | 80 | 30 | 60 | 98 | 100 | 80 | 10 | 100 | 10 | 100 | 80 | 20 | 60 | Growth controlling degree (%) Redroot pigweed [21]: 70%; Growth controlling degree (%) Prickly sida [22]: 50% |
| COc1ccc(C=CC(=O)N(C)C(c2cnccc2C(F)(F)F)C(C)C)cc1 (stereo not drawn) [I-182] | 20 | 10 | 80 | 90 | 10 | 70 | 50 | 60 | 50 | 50 | 100 | 100 | 70 | 0 | 95 | 10 | 98 | 80 | 50 | 30 | Growth controlling degree (%) Japanese ribbon wapato [23]: 80%; Growth controlling degree (%) Redroot pigweed [21]: 50%; Growth controlling degree (%) Prickly sida [22]: 10% |
| CC(C)C(c1cnccc1C(F)(F)F)N(C)C(=O)C=Cc1ccc(C(F)(F)F)cc1 (stereo not drawn) [I-186] | 10 | 0 | 60 | 40 | 60 | 60 | 60 | 50 | 0 | 40 | 98 | 98 | 70 | 10 | 100 | 30 | 95 | 50 | 20 | 40 | Growth controlling degree (%) Redroot pigweed [21]: 50%; Growth controlling degree (%) Prickly sida [22]: 10% |
| CCCC(=O)N(C)C(c1cnccc1C(F)(F)F)C(C)C (stereo not drawn) [I-189, N-methyl-N-[2-methyl-1-(4-trifluoromethylpyridin-3-yl)propyl]butanamide] | 80 | 95 | 98 | 100 | 70 | 85 | 70 | 90 | 90 | 90 | 100 | 100 | 80 | 95 | 100 | 50 | 98 | 90 | 100 | 100 | Growth controlling degree (%) Japanese ribbon wapato [23]: 95%; Growth controlling degree (%) Redroot pigweed [21]: 80%; Growth controlling degree (%) Prickly sida [22]: 90% |
